Assay: DPPH free-radical test of antioxidant potential
Type: biochemical
Source text: Objective: analyzing the antioxidant potential of the complex of the present invention in comparison with other known antioxidant system compositions. A solution of 0.004% of DPPH (diphenyl […] hydrazyl) in ethanol was used. The action of DPPH on ethanol generates free radicals, forming colorful aducts, which are spectrophotometrically detected. Further, a solution of BHT in ethanol was used and its solutions described in the table below. Tubes with the DPPH solution and the compositions of the above products were prepared.

For `O=C1O[C@H]([C@@H](O)CO)C(O)=C1O` [vitamin C, ascorbic acid], which “effect of vitamin C on the potential of the antioxidant complex at determined concentrations” value (at determined concentrations of vitamin C) is on record?
Its value is “causes reduction of said potential”.

What about the “effect of the presence of vitamin C on the potential of the antioxidant complex” value (vitamin C added to the antioxidant complex composition) of the same molecule?
The value was “does not improve the potential”.
